Assay results from patent US10981926B2 (Janssen Pharmaceutica NV, priority 2016, dated 2021).

Legend:
Assay type in all cases: cell-based
[1] = molecular target: T1, F876L mutant Androgen Receptor (AR-F876L) (Homo sapiens (Human), UniProt P10275, F877L); experiment: LNCaP-AR-F876L ANT reporter assay (antagonist mode); conditions: for IC50 / LNCaP-AR-F876L ANT pIC50: pIC50 = −Log10(IC50 in Molar); for IC50: read-out: LNCaP-AR-F876L ANT pIC50 (converted); for Emax: read-out: LNCaP-AR-F876L ANT MAX % Inh
[2] = molecular target: T2, wild-type Androgen Receptor (AR-wt) (Homo sapiens (Human), UniProt P10275); experiment: LNCaP-AR-wt ANT reporter assay (antagonist mode); conditions: for IC50 / LNCaP-AR-wt ANT pIC50: pIC50 = −Log10(IC50 in Molar); for IC50: read-out: LNCaP-AR-wt ANT pIC50 (converted); for Emax: read-out: LNCaP-AR-wt ANT MAX % Inh
[3] = molecular target: T1, F876L mutant Androgen Receptor (AR-F876L); experiment: LNCaP-AR-F876L AG reporter assay (agonist mode); conditions: for EC50: read-out: LNCaP-AR-F876L AG pEC50 (converted); for Emax: read-out: LNCaP-AR-F876L AG MAX % Stim
[4] = molecular target: T2, wild-type Androgen Receptor (AR-wt); experiment: LNCaP-AR-wt AG reporter assay (agonist mode); conditions: for EC50: read-out: LNCaP-AR-wt AG pEC50 (converted); for Emax: read-out: LNCaP-AR-wt AG MAX % Stim
[5] = maximum % inhibition of R1881 control response over the tested concentration range
[6] = agonist mode, pEC50 = −Log10(EC50 in Molar)
[7] = maximum % stimulation (agonist response) over the tested concentration range
[8] = antagonist mode, maximum % inhibition of R1881 control response over tested concentration range
[9] = agonist mode, maximum % stimulation over tested concentration range

T1 sequence (P10275 whole entry F877L): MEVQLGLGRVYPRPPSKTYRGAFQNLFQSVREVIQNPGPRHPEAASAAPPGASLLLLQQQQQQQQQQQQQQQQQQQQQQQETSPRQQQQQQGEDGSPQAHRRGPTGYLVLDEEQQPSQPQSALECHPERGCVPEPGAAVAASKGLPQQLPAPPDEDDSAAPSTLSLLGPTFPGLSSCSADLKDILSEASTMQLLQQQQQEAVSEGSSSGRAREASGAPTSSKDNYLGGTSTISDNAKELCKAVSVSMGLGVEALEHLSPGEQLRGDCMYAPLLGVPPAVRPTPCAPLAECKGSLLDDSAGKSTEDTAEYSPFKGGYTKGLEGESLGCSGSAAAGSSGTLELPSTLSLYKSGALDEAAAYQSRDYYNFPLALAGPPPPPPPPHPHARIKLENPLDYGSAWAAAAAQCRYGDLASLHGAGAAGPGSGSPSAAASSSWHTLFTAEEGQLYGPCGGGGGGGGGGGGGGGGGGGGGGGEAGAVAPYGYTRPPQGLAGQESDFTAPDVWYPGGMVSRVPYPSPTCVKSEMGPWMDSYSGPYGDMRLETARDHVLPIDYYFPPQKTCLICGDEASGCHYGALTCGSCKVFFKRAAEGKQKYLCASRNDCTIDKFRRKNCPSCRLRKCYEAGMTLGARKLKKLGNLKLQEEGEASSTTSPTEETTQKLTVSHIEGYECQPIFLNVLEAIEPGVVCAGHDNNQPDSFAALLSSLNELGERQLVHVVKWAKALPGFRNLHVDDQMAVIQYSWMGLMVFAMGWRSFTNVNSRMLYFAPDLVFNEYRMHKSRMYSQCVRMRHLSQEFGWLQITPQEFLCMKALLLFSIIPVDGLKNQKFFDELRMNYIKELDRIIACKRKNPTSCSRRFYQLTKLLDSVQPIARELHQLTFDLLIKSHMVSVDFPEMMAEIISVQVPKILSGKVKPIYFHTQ
T2 sequence (P10275 whole entry): as the sequence (P10275 whole entry F877L) above, with L877F counted along it

## COCc1ccc(-c2ccc(N3C(=S)N(c4cnc(C#N)c(C)c4)C(=O)C34CCC4)cc2)o1 [Cpd 6, 5-(8-{4-[5-(methoxymethyl)(2-furyl)]phenyl}-5-oxo-7-thioxo-6,8-diazaspiro[3.4]oct-6-yl)-3-methylpyridine-2-carbonitrile]
[1]; antagonist mode
  IC50: 191 nM
[1]; [5]
  Emax: 98.1%
[2]; antagonist mode
  IC50: 295 nM
[2]; [5]
  Emax: 99.7%
[3]; [6]
  EC50: > 15100 nM
[3]; [7]
  Emax: 0.9%
[4]; [6]
  EC50: > 15100 nM
[4]; [7]
  Emax: 0.3%

## CN1CC[C@@H](Oc2ccc(N3C(=S)N(c4cnc(C#N)c(C(F)(F)F)c4)C(=O)C34CCC4)cc2)C[C@H]1CO (racemic) [Cpd 226, 5-[8-(2SR,4RS)[4-[[2-(hydroxymethyl)-1-methyl-4-piperidyl]oxy]phenyl]-5-oxo-7-thioxo-6,8-diazaspiro[3.4]octan-6-yl]-3-(trifluoromethyl)pyridine-2-carbonitrile]
[1]; [8]
  Emax: 100%
[1]; antagonist mode
  IC50: 36.3 nM
[2]; [8]
  Emax: 101%
[2]; antagonist mode
  IC50: 60.3 nM
[3]; [9]
  Emax: 0.2%
[3]; [6]
  EC50: > 15100 nM
[4]; [9]
  Emax: 0.4%
[4]; [6]
  EC50: > 15100 nM

## N#Cc1ncc(N2C(=O)C3(CCC3)N(c3ccc(C4CC5CCC(C4)N5)cc3)C2=S)cc1C(F)(F)F (centres unmarked) [Cpd 123, 5-(5-(4-(8-azabicyclo[3.2.1]octan-3-yl)phenyl)-8-oxo-6-thioxo-5,7-diazaspiro[3.4]octan-7-yl)-3-(trifluoromethyl)picolinonitrile]
[1]; antagonist mode
  LNCaP-AR-F876L ANT pIC50: 6.03
[1]; [5]
  Emax: 102%
[2]; antagonist mode
  LNCaP-AR-wt ANT pIC50: 5.64
[2]; [5]
  Emax: 103%
[3]; [6]
  LNCaP-AR-F876L AG pEC50: <4.82
[3]; [7]
  Emax: 0.2%
[4]; [6]
  LNCaP-AR-wt AG pEC50: <4.82
[4]; [7]
  Emax: 0.3%

## CC(C)(C)OC(=O)NC1C(C)(C)C(Oc2ccc(N3C(=S)N(c4cnc(C#N)c(C(F)(F)F)c4)C(=O)C34CCC4)cc2)C1(C)C (centres unmarked) [Cpd 110, tert-butyl N-[3-[4-[6-[6-cyano-5-(trifluoromethyl)-3-pyridyl]-5-oxo-7-thioxo-6,8-diazaspiro[3.4]octan-8-yl]phenoxy]-2,2,4,4-tetramethyl-cyclobutyl]carbamate]
[1]; antagonist mode
  IC50: 91.2 nM
[1]; [5]
  Emax: 100%
[2]; antagonist mode
  IC50: 132 nM
[2]; [5]
  Emax: 101%
[3]; [6]
  EC50: > 15100 nM
[3]; [7]
  Emax: 0.2%
[4]; [6]
  EC50: > 15100 nM
[4]; [7]
  Emax: 0.3%

## N#Cc1ncc(N2C(=O)C3(CCC3)N(c3ccc(O)nc3)C2=S)cc1C(F)(F)F [Cpd 18, 5-[8-(6-hydroxy-3-pyridyl)-5-oxo-7-thioxo-6,8-diazaspiro[3.4]octan-6-yl]-3-(trifluoromethyl)pyridine-2-carbonitrile]
[1]; antagonist mode
  LNCaP-AR-F876L ANT pIC50: 6.00
[1]; [5]
  Emax: 99%
[2]; antagonist mode
  LNCaP-AR-wt ANT pIC50: 5.65
[2]; [5]
  Emax: 93.5%
[3]; [6]
  EC50: > 15100 nM
[3]; [7]
  Emax: 0%
[4]; [6]
  EC50: > 15100 nM
[4]; [7]
  Emax: 0%

## C=CCN1CCC(Oc2ccc(N3C(=S)N(c4cnc(C#N)c(Cl)c4)C(=O)C34CCC4)cn2)CC1 [Cpd 89, 5-[8-[6-[(1-allyl-4-piperidyl)oxy]-3-pyridyl]-5-oxo-7-thioxo-6,8-diazaspiro[3.4]octan-6-yl]-3-chloro-pyridine-2-carbonitrile]
[1]; antagonist mode
  IC50: 55 nM
[1]; [5]
  Emax: 98.4%
[2]; antagonist mode
  IC50: 67.6 nM
[2]; [5]
  Emax: 101%
[3]; [6]
  EC50: > 15100 nM
[3]; [7]
  Emax: 3.3%
[4]; [6]
  EC50: > 15100 nM
[4]; [7]
  Emax: 0.2%

## C[N@+]1([O-])CC[C@H](Oc2ccc(N3C(=S)N(c4cnc(C#N)c(C(F)(F)F)c4)C(=O)C34CCC4)cc2)CC1 [Cpd 190, 5-[8-[4-(1-methyl-1-oxido-piperidin-1-ium-4-yl)oxyphenyl]-5-oxo-7-thioxo-6,8-diazaspiro[3.4]octan-6-yl]-3-(trifluoromethyl)pyridine-2-carbonitrile]
[1]; [8]
  Emax: 97.4%
[1]; antagonist mode
  IC50: 1660 nM
[2]; [8]
  Emax: 95.3%
[2]; antagonist mode
  IC50: 3020 nM
[3]; [9]
  Emax: 0.1%
[3]; [6]
  EC50: > 15100 nM
[4]; [9]
  Emax: -0.1%
[4]; [6]
  EC50: > 15100 nM
